According to patent US8071645B2, “Systems and methods for treating human inflammatory and proliferative diseases and wounds, with fatty acid metabolism inhibitors and/or glycolytic inhibitors” (The Regents of the University of Colorado, priority 2003, dated 2011):

How the values were obtained:
Type in all cases: cell-based
L1210 DDP cells = experiment: mitochondrial membrane potential (MitoTracker) of L1210 DDP cells; details: 24 hours of incubation, FIG. 11
Protocol: Flow Cytometry. Cells were harvested, counted, and resuspended at 10^6 cells/100 μl of PBS containing 2.5% fetal calf serum in preparation for flow cytometric analysis. Cells were stained for intracellular H202 using 6-carboxy-2′,7′-dichlorodihydrofluorescein diacetate (DCF-DA, Molecular Probes, Eugene, Oreg.). Briefly, cells were incubated at 37° with 1 mM DCF-DA for 20 minutes, washed twice in PBS containing 2.5% fetal calf serum and analyzed flow cytometrically. Mitochondrial membrane potential was assessed using Mitotracker Red (CM-H2XROS, Molecular Probes, Eugene, Oreg.). […] The cells were incubated at 37° for 20 minutes, washed twice in PBS containing 2.5% fetal calf serum and analyzed flow cytometrically. Data were acquired on a Coulter Elite Epics or Excel flow cytometer (Coulter, Hialeah, Fla.) and analyzed with CellQuest software, (Becton Dickinson, San Jose, Calif.). […] Each sample population was classified for cell size (forward scatter) and complexity (side scatter), gated on a population of interest and evaluated using 5,000 cells. […]
We measured the effects of etomoxir on metabolism by measuring mitochondrial membrane potential with a fluorescent dye (Mitotracker Red, Molecular Probes, Eugene, Oreg.) which fluoresces as a function of mitochondrial potential. […]

B16F1 melanoma cells = experiment: DCFDA staining (reactive oxygen species) of B16F1 melanoma cells; details: 48 hours, FIG. 19
Protocol: Metabolic Activity Assay. Cells were prepared as previously described. The specific metabolic dye was added and mixed into the cell suspension. This plate was then placed into the 37° incubator for a 20-minute incubation. After incubation, the cells were centrifuged at 300×g for 5 minutes, and the supernatant was removed. The cells were then washed once with PBS/2.5% FBS and transferred into flow cytometric tubes containing 500 μL of PBS/2.5% FBS for analysis
5-(and -6)-Chloromethyl-2′,7′-dichlorodihydrofluorescein diacetate (CMH2DCFDA) (Molecular Probes). One vial of DCFda provides 10 tests and contains 50 μg. This is unstable and can't be stored. Therefore, each vial was opened and 43 μL of DMSO was added. […]
Geometric Mean Fluorescence. […] Once the stained sample was plotted against the control (isotype or unstained), geometric mean fluorescence values were obtained for both histogram peaks. The stained control sample value was subtracted from sample to identify the actual fluorescence of the stained sample over that of the control.
B16F1 melanoma cells of Example 12 were untreated or treated with etomoxir at the indicated concentrations for 48 hours. Cells were harvested, stained with DCFDA as described in Materials and Methods, and analyzed by flow cytometry. The value of DCFDA was then calculated as described in Materials and Methods.

[1] = system: RD cells (rhabdomyosarcoma cells); experiment: percent death of RD cells by flow cytometry
Protocol: Dot plots as a function of live versus dead cells. The cells were cultured at a concentration of 0.5 to 1 million cells per ml. Cells were untreated or treated with etomoxir or 2-deoxy-D-glucose at a concentration of 2.5 mM at the indicated concentrations for either 24 or 48 hours. In additional experiments, under each of these culture conditions, the cells were cultured for 24 hours at which time point, polyclonal anti-UCP-2 was added at a 1:1000 dilution of stock provided by Alpha Diagnostics, San Antonio, Tex. Cells were harvested and analyzed by flow cytometry. Each dot on the dot plots of FIGS. 1, 3, 5, 7, 9, and 11 represents one cell. Five thousand cells were assessed for forward scatter (FS), as a function of cell size, versus side scatter (SS), as a function of cellular granularity. The upper ellipse represents live cells by these criterion and the lower ellipse in each dot plot represents the dead cells.
Statistical Analysis, Percents, and Geometric Mean Values Percents. Gating is a tool provided by Cell Quest software and allows for the analysis of a certain population of cells. Gating around both the live and dead cell populations gave a percent of the cell numbers that was in each population. After the gates were drawn, a percent value of dead cells was calculated by taking the number of dead cells divided by the number of total cells and multiplying by one hundred.
Referring to FIGS. 29 and 30, RD cells (rhabdomyosarcoma cells—not drug resistant), cultured as described above under “Materials and Methods” were untreated or treated with etomoxir, with 2-deoxy-D-glucose, or with a combination of etomoxir and 2-deoxy-D-glucose, at concentrations indicated in FIG. 29 for 24 hours. Cells were harvested and analyzed by flow cytometry. […] The percent of cell deaths for RD cells after 24 hours was: (a) 31% when untreated, (b) 57% when treated with etomoxir alone, (c) 46% when treated with 2-deoxy-D-glucose alone, and (d) 66% when treated with the combination of etomoxir and 2-deoxy-D-glucose.
Referring to FIGS. 33 and 34, RD cells, cultured as described in Example 22, were untreated or treated with etomoxir, with 2-deoxy-D-glucose, or with a combination of etomoxir and 2-deoxy-D-glucose, at concentrations indicated in FIG. 33 for 48 hours. Cells were harvested and analyzed by flow cytometry. […] The percent of cell deaths for RD cells after 48 hours was: (a) 36% when untreated, (b) 64% when treated with etomoxir alone, (c) 63% when treated with 2-deoxy-D-glucose alone, and (d) 68% when treated with the combination of etomoxir and 2-deoxy-D-glucose.

CCOC(=O)C1(CCCCCCOc2ccc(Cl)cc2)CO1 (stereo not shown) [etomoxir, 2-(6-(4-chlorophenoxy)-hexyl)-oxirane-2-carboxylic acid ethyl ester]
mitochondrial membrane potential (MitoTracker) (L1210 DDP cells): increase | reactive oxygen species as measured by DCFDA (B16F1 melanoma cells): dose dependent increase | percent of cell deaths ([1]; 24 hours, concentrations as in FIG. 29): 57% | percent of cell deaths ([1]; 48 hours, concentrations as in FIG. 33): 64%
